Literature values, collected in patent US8883786B2, “Glucocorticoid receptor antagonists” (Hoffmann-La Roche Inc., priority 2007, dated 2014).

Legend:
[1] = long term treatment (up to 1 year)
[2] = clinical administration, acute, normal volunteers
ob/ob mice = settings: leptin deficient ob/ob mice
gluconeogenic enzymes = settings: db/db mice
[3] = tested on: Hypothalamus-Pituitary gland-Adrenal gland (HPA) axis; settings: HPA axis stimulation via feed-back mechanism
[4] = clinical administration, chronic, Cushing's patients

For `CC#C[C@]1(O)CC[C@H]2[C@@H]3CCC4=CC(=O)CCC4=C3[C@@H](c3ccc(N(C)C)cc3)C[C@@]21C` [RU486/mifepristone, mifepristone], which adrenal insufficiency symptoms [1] is on record?
Its adrenal insufficiency symptoms is “induces some adrenal insufficiency symptoms”.

And the fasting plasma glucose [2]?
The fasting plasma glucose was “decrease of fasting plasma glucose”.

And the fasting plasma glucose (ob/ob mice)?
Its fasting plasma glucose is “normalizes fasting plasma glucose”.

What about the “activity of gluconeogenic enzymes” value (gluconeogenic enzymes) of the same compound?
The value was “normalizes”.

And the “endogenous corticosteroids circulating in the blood” value [3]?
The value was “increase of endogenous corticosteroids circulating in the blood”.

What about the “plasmatic HbA1c” value [4] of the same compound?
The value was “decrease of plasmatic HbA1c”.
